Assay results as given in the supplement of paper PMC10307832.

Columns and labels:
Assay in all cases: relative viability (nuclei count vs DMSO), 5 days (fraction); higher = more cells survive
Metformin + Luminespib = compound: CN(C)C(=N)NC(=N)N [Metformin] + CCNC(=O)c1noc(-c2cc(C(C)C)c(O)cc2O)c1-c1ccc(CN2CCOCC2)cc1 [Luminespib] (partner 0.01 µM)
Method in brief: (§1)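 Five library-drug doses in √10 steps were combined with a fixed anchor-drug dose, or a single drug was given alone, by pin tool to lung cancer cell lines in 1536-well plates the day after seeding. Nuclei were stained and counted after 5 days. Relative viability is the nuclei count in treated wells over that in vehicle wells, taken as the median of duplicate plates.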

Metformin + Crizotinib = compound: CN(C)C(=N)NC(=N)N [Metformin] + C[C@@H](Oc1cc(-c2cnn(C3CCNCC3)c2)cnc1N)c1c(Cl)ccc(F)c1Cl [Crizotinib] (partner 1 µM)
Method in brief: as §1

Metformin + Pemetrexed = compound: CN(C)C(=N)NC(=N)N [Metformin] + Nc1nc2[nH]cc(CCc3ccc(C(=O)N[C@@H](CCC(=O)O)C(=O)O)cc3)c2c(=O)[nH]1 [Pemetrexed] (partner 0.2 µM)
Method in brief: as §1

Apatinib + OSI-027 = compound: N#CC1(c2ccc(NC(=O)c3cccnc3NCc3ccncc3)cc2)CCCC1 [Apatinib] + COc1cccc2cc(-c3nc([C@H]4CC[C@H](C(=O)O)CC4)n4ncnc(N)c34)[nH]c12 [OSI-027] (partner 0.5 µM)
Method in brief: as §1

| Cell Line | relative viability (Metformin + Luminespib; first compound 31.62 µM) | relative viability (Metformin + Luminespib; first compound 100 µM) | relative viability (Metformin + Luminespib; first compound 316.23 µM) | relative viability (Metformin + Luminespib; first compound 1000 µM) | relative viability (Metformin + Crizotinib; first compound 31.62 µM) | relative viability (Metformin + Crizotinib; first compound 100 µM) | relative viability (Metformin + Crizotinib; first compound 316.23 µM) | relative viability (Metformin + Crizotinib; first compound 1000 µM) | relative viability (Metformin + Pemetrexed; first compound 31.62 µM) | relative viability (Metformin + Pemetrexed; first compound 100 µM) | relative viability (Metformin + Pemetrexed; first compound 316.23 µM) | relative viability (Metformin + Pemetrexed; first compound 1000 µM) | relative viability (Apatinib + OSI-027; first compound 0.253 µM) | relative viability (Apatinib + OSI-027; first compound 0.8 µM) | relative viability (Apatinib + OSI-027; first compound 2.53 µM) | relative viability (Apatinib + OSI-027; first compound 8 µM) | relative viability (Metformin + Crizotinib; first compound 10 µM) | relative viability (Metformin + Luminespib; first compound 10 µM) | relative viability (Metformin + Pemetrexed; first compound 10 µM) | relative viability (Apatinib + OSI-027; first compound 0.08 µM) |
| --- | --- | --- | --- | --- | --- | --- | --- | --- | --- | --- | --- | --- | --- | --- | --- | --- | --- | --- | --- | --- |
| 201T | 1.15 | 1.1 | 1.06 | 1.03 | 1.04 | 1.07 | 0.965 | 1 | 0.329 | 0.313 | 0.289 | 0.353 | 0.763 | 0.718 | 0.723 | 0.751 | – | – | – | – |
| A549 | – | – | – | – | 0.531 | 0.653 | 0.723 | 0.777 | – | – | – | – | – | – | – | – | 0.782 | – | – | – |
| A-427 | 0.972 | 1.04 | 0.952 | 0.91 | 1.17 | 0.84 | 0.926 | 0.896 | 1.05 | 1 | 1 | 0.878 | 0.465 | 0.479 | 0.476 | 0.404 | 0.802 | 1.21 | 0.972 | 0.52 |
| ABC-1 | 0.694 | 0.883 | 0.306 | 0.371 | 1.3 | 0.869 | 0.447 | 0.29 | – | – | – | – | 0.543 | 0.453 | 0.499 | 0.336 | – | 0.481 | – | – |
| BEN | 0.475 | 0.833 | 0.361 | 0.705 | 1.24 | 1.15 | 1.01 | 1.13 | 1.08 | 0.733 | 0.812 | 0.64 | 0.277 | 0.3 | 0.299 | 0.317 | 1.16 | 0.461 | 1.11 | 0.283 |
| CAL-12T | 0.775 | 0.447 | 0.699 | 0.417 | 0.64 | 0.552 | 0.611 | 0.521 | 1.04 | 1.26 | 1.13 | 0.97 | 0.589 | 0.52 | 0.366 | 0.272 | – | 0.253 | 1.05 | 0.652 |
| COR-L23 | 0.655 | 0.593 | 0.495 | 0.302 | 0.461 | 0.483 | 0.574 | 0.639 | 0.186 | 0.209 | 0.195 | 0.203 | 0.792 | 0.673 | 0.669 | 0.6 | 0.564 | 0.635 | 0.196 | 0.844 |
| COR-L 105 | 0.736 | 0.749 | 0.538 | 0.795 | 0.841 | 0.821 | 0.745 | 0.697 | 1.26 | 1.33 | 1.29 | 1.1 | 0.806 | 0.619 | 0.582 | 0.491 | 0.71 | 0.85 | 1.12 | 0.775 |
| Calu-6 | – | – | – | – | 0.755 | 0.71 | 0.691 | 0.714 | – | – | – | – | – | – | – | – | 0.637 | – | – | – |
| ChaGo-K-1 | 0.751 | 0.67 | 0.634 | 0.696 | 1.07 | 1.09 | 1.13 | 1.19 | 0.277 | 0.259 | 0.257 | 0.256 | 0.616 | 0.491 | 0.455 | 0.493 | 1.16 | 0.599 | 0.259 | 0.628 |
| EBC-1 | – | – | – | – | 0.154 | 0.205 | 0.173 | 0.222 | – | – | – | – | – | – | – | – | 0.205 | – | – | – |
